This note sets out measurements from patent US10477864B2, “Microbiocidal quinoline (thio)carboxamide derivatives” (priority 2016, dated 2019).

One data set relates to Sclerotinia sclerotiorum. Nature of the data set: Sclerotinia sclerotiorum / liquid culture (cottony rot). Particulars: 72 h, read-out: control of Sclerotinia sclerotiorum.
Data set [1] deals with Magnaporthe grisea (Pyricularia oryzae). The data set can be described thus: microbe, parasite or virus in culture. It is filed as cell-based. The note with it: 72 h, read-out: control of Magnaporthe grisea.
Data set [2] relates to Mycosphaerella graminicola (Septoria tritici). The data set can be described thus: Mycosphaerella graminicola (Septoria tritici) / liquid culture (Septoria blotch). It is filed as cell-based. The note with it: Zymoseptoria tritici; read-out: control of Mycosphaerella graminicola.
The test system of data set [3] is Botryotinia fuckeliana (Botrytis cinerea). Nature of the data set: Botryotinia fuckeliana (Botrytis cinerea) / liquid culture (gray mould). Format: cell-based. Particulars: 72 h, read-out: control of Botryotinia fuckeliana.
The test system of another data set is Gaeumannomyces graminis. Nature of the data set: Gaeumannomyces graminis / liquid culture (take-all of cereals). It is filed as cell-based. Particulars: read-out: control of Gaeumannomyces graminis.
Data set [4] has as its system Glomerella lagenarium (Colletotrichum lagenarium). Nature of the data set: Glomerella lagenarium (Colletotrichum lagenarium) / liquid culture (anthracnose). Format: cell-based. The note with it: Colletotrichum orbiculare; read-out: control of Glomerella lagenarium.
Data set [5] deals with Fusarium culmorum. Nature of the data set: whole plant or invertebrate. Format: in vivo. Particulars: in Triticum aestivum, read-out: control of Fusarium culmorum.
In data set [6] the test system is Fusarium culmorum. The data set can be described thus: microbe, parasite or virus in culture. Particulars: read-out: control of Fusarium culmorum. Format: cell-based.
Data set [7] has as its system Monographella nivalis (Microdochium nivale). The data set can be described thus: Monographella nivalis (Microdochium nivale) / liquid culture (foot rot cereals). The note with it: 96 h, read-out: control of Monographella nivalis. Format: cell-based.

Description for Sclerotinia sclerotiorum: Sclerotinia sclerotiorum/Liquid Culture (Cottony Rot)
Mycelia fragments of a newly grown liquid culture of the fungus are directly mixed into nutrient broth (Vogels broth). After placing a (DMSO) solution of test compound into a microtiter plate (96-well format) the nutrient broth containing the fungal material is added. The test plates are incubated at 24° C. and the inhibition of growth is determined photometrically 3-4 days after application.

As usually defined, the melting point is the temperature, or range, at which the solid turns liquid. In turn, `CC(C)CC(C)(Cc1ccccc1)NC(=O)c1cnc2c(F)cccc2c1` (stereo not shown) [Compound E-6, N-(1-benzyl-1,3-dimethyl-butyl)-8-fluoro-quinoline-3-carboxamide] showed a melting point of 110 to 112 °C. Further, the inhibition of growth at 20 ppm in the data set with Sclerotinia sclerotiorum was at least 80%. In addition, in data set [1], the inhibition of growth at 200 ppm was at least 80%. Besides, the inhibition of growth at 200 ppm in [2] was at least 80%. Also, in [3], the inhibition of growth at 200 ppm is at least 80%. For the same molecule, in the data set with Gaeumannomyces graminis, the inhibition of growth at 200 ppm is at least 80%. Further, in data set [4], the inhibition of growth at 200 ppm is at least 80%. Further, in the data set with Fusarium culmorum [5], the pest or weed control at 200 ppm is at least 80%. Further, the inhibition of growth at 200 ppm in the data set with Fusarium culmorum [6] was at least 80%. Besides, in data set [7], the inhibition of growth at 200 ppm was at least 80%.

`CC(C)C[C@H](Cc1ccccc1)NC(=O)c1cnc2c(F)cccc2c1` [Compound F-3, N-[(1R)-1-benzyl-3-methyl-butyl]-8-fluoro-quinoline-3-carboxamide]: the inhibition of growth at 20 ppm with Sclerotinia sclerotiorum is at least 80%. The inhibition of growth at 200 ppm (in [2]; in data set [3]; in the data set with Gaeumannomyces graminis; in [4]; in the data set with Fusarium culmorum [6]) was at least 80% each time. The pest or weed control at 200 ppm in the data set on Fusarium culmorum [5] was at least 80%.

In the case of `CC(C)C[C@@](C)(Cc1ccccc1)NC(=O)c1cnc2c(F)cccc2c1` [Compound F-2, N-[(1S)-1-benzyl-1,3-dimethyl-butyl]-8-fluoro-quinoline-3-carboxamide], the inhibition of growth at 20 ppm with Sclerotinia sclerotiorum is at least 80%. The inhibition of growth at 200 ppm (in [2]; in [3]; in the data set with Gaeumannomyces graminis; in data set [4]; in the data set on Fusarium culmorum [6]; in [7]) was at least 80% throughout. In addition, the pest or weed control at 200 ppm with Fusarium culmorum [5] was at least 80%.
